Source: patent publication US10065956B2, “Ethynyl derivatives” (Hoffmann-La Roche Inc., priority 2015, dated 2018)

Legend:
mice [1] = details: reported by Addex 2010; cited from earlier work
mice [2] = details: reported by Addex 2010; cited from earlier work; remark: listed apart in the source
rats = details: cited from earlier work
mice [3] = details: mice treated with MPTP; cited from earlier work
human mGlu4 receptor = biological target: T1, human mGlu4 receptor (Homo sapiens, UniProt Q14833); test: Ca2+ mobilization in vitro assay on recombinant human mGlu4 expressed in HEK293 cells (PAM, L-AP4 at EC20); type: cell-based; details: for Emax: HEK293, maximal response in % of the maximal stimulatory effect obtained with saturating concentrations of L-AP4, read-out: Eff. (%); for EC50: HEK293 cells expressing human mGlu4, L-AP4 added at EC20
T1 construct: expressed in transfected cells; host or cells: monoclonal HEK-293 cell line, stably transfected
Description: FIG. 1: Illustration of the experimental outline for mGlu4 PAM Ca2+ mobilization screening assay and the determination of EC50 and % Emax values.
Determination of EC50 Values Using a Ca2+ Mobilization In Vitro Assay on Recombinant Human mGlu4 Expressed in HEK293 Cells:
A monoclonal HEK-293 cell line stably transfected with a cDNA encoding for the human mGlu4 receptor was generated; for the work with mGlu4 Positive Allosteric Modulators (PAMs), a cell line with low receptor expression levels and low constitutive receptor activity was selected to allow the differentiation of agonistic versus PAM activity. Cells were cultured according to standard protocols (Freshney, 2000) in Dulbecco's Modified Eagle Medium with high glucose supplemented with 1 mM glutamine, 10% (vol/vol) heat-inactivated bovine calf serum, Penicillin/Streptomycin, 50 μg/ml hygromycin and 15 μg/ml blasticidin (all cell culture reagents and antibiotics from Invitrogen, Basel, Switzerland).
About 24 hrs before an experiment, 5×10^4 cells/well were seeded in poly-D-lysine coated, black/clear-bottomed 96-well plates. The cells were loaded with 2.5 μM Fluo-4AM in loading buffer (1×HBSS, 20 mM HEPES) for 1 hr at 37° C. and washed five times with loading buffer. The cells were transferred into a Functional Drug Screening System 7000 (Hamamatsu, Paris, France), and 11 half logarithmic serial dilutions of test compound at 37° C. were added and the cells were incubated for 10-30 min. with on-line recording of fluorescence. Following this pre-incubation step, the agonist (2S)-2-amino-4-phosphonobutanoic acid (L-AP4) was added to the cells at a concentration corresponding to EC20 with on-line recording of fluorescence; in order to account for day-to-day variations in the responsiveness of cells, the EC20 of L-AP4 was determined immediately ahead of each experiment by recording of a full dose-response curve of L-AP4. Responses were measured as peak increase in fluorescence minus basal (i.e. fluorescence without addition of L-AP4), normalized to the maximal stimulatory effect obtained with saturating concentrations of L-AP4. Graphs were plotted with the % maximal stimulatory using XLfit, a curve fitting program that iteratively plots the data using Levenburg Marquardt algorithm. The single site competition analysis equation used was y=A+((B−A)/(1+((x/C)D))), where y is the % maximal stimulatory effect, A is the minimum y, B is the maximum y, C is the EC50, x is the log 10 of the concentration of the competing compound and D is the slope of the curve (the Hill Coefficient). From these curves the EC50 (drug concentration at which 50% of the maximal receptor activation was achieved), the Hill coefficient as well as the maximal response in % of the maximal stimulatory effect obtained with saturating concentrations of L-AP4 were calculated (see FIG. 1). […] A depression of the signal observed after addition of the EC20 concentration of L-AP4 was indicative of an inhibitory activity of the test compound.

rodent = details: 6-OHDA rodent model of PD; cited from earlier work

T1 sequence (Q14833 33-912): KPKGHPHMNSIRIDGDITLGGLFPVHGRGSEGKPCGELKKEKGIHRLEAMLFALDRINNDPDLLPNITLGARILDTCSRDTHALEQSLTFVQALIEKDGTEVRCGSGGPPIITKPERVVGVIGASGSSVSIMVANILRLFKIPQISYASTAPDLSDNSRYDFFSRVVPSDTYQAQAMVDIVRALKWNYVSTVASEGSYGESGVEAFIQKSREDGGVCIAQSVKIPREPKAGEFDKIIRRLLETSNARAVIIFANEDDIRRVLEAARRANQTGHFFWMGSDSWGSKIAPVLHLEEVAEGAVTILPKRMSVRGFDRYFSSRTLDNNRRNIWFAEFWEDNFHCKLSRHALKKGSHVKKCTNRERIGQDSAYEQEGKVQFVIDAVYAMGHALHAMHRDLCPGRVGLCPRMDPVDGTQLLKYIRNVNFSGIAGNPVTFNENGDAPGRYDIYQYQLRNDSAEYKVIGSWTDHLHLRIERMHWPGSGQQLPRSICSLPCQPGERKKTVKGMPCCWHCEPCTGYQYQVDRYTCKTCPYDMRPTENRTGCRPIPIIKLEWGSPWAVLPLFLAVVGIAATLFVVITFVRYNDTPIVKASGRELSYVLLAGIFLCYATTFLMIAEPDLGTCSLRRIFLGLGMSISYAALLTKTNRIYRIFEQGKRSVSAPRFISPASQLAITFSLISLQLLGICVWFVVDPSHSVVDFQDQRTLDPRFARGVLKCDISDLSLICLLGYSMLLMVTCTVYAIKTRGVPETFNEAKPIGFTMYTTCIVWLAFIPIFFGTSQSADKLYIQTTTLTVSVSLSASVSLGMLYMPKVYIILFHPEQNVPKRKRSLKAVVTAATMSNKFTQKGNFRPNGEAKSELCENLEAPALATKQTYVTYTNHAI

Row | SMILES | Emax (human mGlu4 receptor) | EC50 (human mGlu4 receptor) | further results
1 | Cc1ccnc(Nc2nc(-c3cn[nH]c3)c(C)s2)n1 [ADX88178] |  |  | activity in marble burying test (mice [1]): active; activity in EPM (mice [2]): active; profile in the rat EPM test (rats; rat, after oral dosing): anxiolytic-like profile; activity in EPM (rats; rats, reported by Addex 2010): active
2 | O=C(Nc1ccccc1)C12CC1/C(=N\O)c1ccccc1O2 (single isomer, unassigned; (-)) [(−)-PHCCC] |  |  | nigrostriatal degeneration (mice [3]): reduced nigrostriatal degeneration
3 | CC[C@@]1(c2cn[nH]c2)CC(=O)N(c2c(F)cc(C#Cc3cccnc3)cc2F)C(=O)N1C [Example 51, (6S)-3-[2,6-Difluoro-4-[2-(3-pyridyl)ethynyl]phenyl]-6-ethyl-1-methyl-6-(1H-pyrazol-4-yl)hexahydropyrimidine-2,4-dione] | 136% | 45 nM | 
4 | CN1C(=O)N(c2c(F)cc(C#Cc3ccccc3)cc2F)C(=O)C[C@@]1(C)c1cnsc1 [Example 15, (6S)-3-[2,6-Difluoro-4-(2-phenylethynyl)phenyl]-6-isothiazol-4-yl-1,6-dimethyl-hexahydropyrimidine-2,4-dione] | 167% | 38 nM | 
5 | N[C@@H](CCP(=O)(O)O)C(=O)O [L-AP4, (2S)-2-amino-4-phosphonobutanoic acid] |  |  | neuroprotection in 6-OHDA model (rodent): neuroprotective effects
6 | CN1C(=O)N(c2c(F)cc(C#Cc3cccc(F)c3)cc2F)C(=O)C[C@@]1(C)c1cn[nH]c1 [Example 59, (6S)-3-[2,6-Difluoro-4-[2-(3-fluorophenyl)ethynyl]phenyl]-1,6-dimethyl-6-(1H-pyrazol-4-yl)hexahydropyrimidine-2,4-dione] | 160% | 44 nM | 
7 | CC[C@@]1(c2ccn(C)n2)CC(=O)N(c2c(F)cc(C#Cc3ccccc3)cc2F)C(=O)N1C [Example 27, (6S)-3-[2,6-Difluoro-4-(2-phenylethynyl)phenyl]-6-ethyl-1-methyl-6-(1-methylpyrazol-3-yl)hexahydropyrimidine-2,4-dione] | 143% | 83 nM | 
8 | CN1C(=O)N(c2c(F)cc(C#Cc3ccc(F)cc3F)cc2F)C(=O)C[C@@]1(C)c1cnn(C)c1 [Example 58, (6S)-3-[4-[2-(2,4-Difluorophenyl)ethynyl]-2,6-difluoro-phenyl]-1,6-dimethyl-6-(1-methylpyrazol-4-yl)hexahydropyrimidine-2,4-dione] | 139% | 80 nM | 
9 | CN1C(=O)N(c2c(F)cc(C#Cc3cnsc3)cc2F)C(=O)C[C@@]1(C)c1cnn(C)c1 [Example 25, (6S)-3-[2,6-Difluoro-4-(2-isothiazol-4-ylethynyl)phenyl]-1,6-dimethyl-6-(1-methylpyrazol-4-yl)hexahydropyrimidine-2,4-dione] | 149% | 45 nM | 
10 | CN1C(=O)N(c2c(F)cc(C#Cc3ccccc3)cc2F)C(=O)C[C@@]1(C)c1cn(C)nn1 [Example 34, (6S)-3-[2,6-Difluoro-4-(2-phenylethynyl)phenyl]-1,6-dimethyl-6-(1-methyltriazol-4-yl)hexahydropyrimidine-2,4-dione] | 207% | 71 nM | 
11 | CN1C(=O)N(c2c(F)cc(C#Cc3ccccc3)cc2F)C(=O)C[C@@]1(C)c1cnn(CC(C)(C)O)c1 [Example 60, (6S)-3-[2,6-Difluoro-4-(2-phenylethynyl)phenyl]-6-[1-(2-hydroxy-2-methyl-propyl)pyrazol-4-yl]-1,6-dimethyl-hexahydropyrimidine-2,4-dione] | 142% | 47 nM | 
12 | CN1C(=O)N(c2c(F)cc(C#Cc3ccccc3F)cc2F)C(=O)C[C@@]1(C)c1cnn(C)c1 [Example 50, (6S)-3-[2,6-Difluoro-4-[2-(2-fluorophenyl)ethynyl]phenyl]-1,6-dimethyl-6-(1-methylpyrazol-4-yl)hexahydropyrimidine-2,4-dione] | 147% | 50 nM | 
13 | CC(C)n1ccc([C@]2(C)CC(=O)N(c3c(F)cc(C#Cc4ccccc4)cc3F)C(=O)N2C)n1 [Example 29, (6S)-3-[2,6-Difluoro-4-(2-phenylethynyl)phenyl]-6-(1-isopropylpyrazol-3-yl)-1,6-dimethyl-hexahydropyrimidine-2,4-dione] | 146% | 126 nM | 

Further compounds by falling EC50 (human mGlu4 receptor), results first:

Row | Emax (human mGlu4 receptor) | EC50 (human mGlu4 receptor) | SMILES | further results
14 | 165% | 123 nM | CN1C(=O)N(c2c(F)cc(C#Cc3ccccc3)cc2F)C(=O)C[C@@]1(C)c1ccno1 [Example 41, (6S)-3-[2,6-Difluoro-4-(2-phenylethynyl)phenyl]-6-isoxazol-5-yl-1,6-dimethyl-hexahydropyrimidine-2,4-dione] | 
15 | 143% | 97 nM | CN1C(=O)N(c2c(F)cc(C#Cc3cccc(F)c3F)cc2F)C(=O)C[C@@]1(C)c1cnn(C)c1 [Example 57, (6S)-3-[4-[2-(2,3-Difluorophenyl)ethynyl]-2,6-difluoro-phenyl]-1,6-dimethyl-6-(1-methylpyrazol-4-yl)hexahydropyrimidine-2,4-dione] | 
16 | 156% | 97 nM | CN1C(=O)N(c2c(F)cc(C#Cc3ccccc3)cc2F)C(=O)C[C@@]1(C)c1ccn(CCO)n1 [Example 46, (S)-3-(2,6-Difluoro-4-(phenylethynyl)phenyl)-6-(1-(2-hydroxyethyl)-1H-pyrazol-3-yl)-1,6-dimethyldihydropyrimidine-2,4(1H,3H)-dione] | 
17 | 195% | 90 nM | CN1C(=O)N(c2c(F)cc(C#Cc3ccccc3)cc2F)C(=O)C[C@@]1(C)c1cnco1 [Example 35, (6S)-3-[2,6-Difluoro-4-(2-phenylethynyl)phenyl]-1,6-dimethyl-6-oxazol-5-yl-hexahydropyrimidine-2,4-dione] | 
18 | 98% | 88 nM | CN1C(=O)N(c2c(F)cc(C#Cc3ccccc3)cc2F)C(=O)C[C@@]1(C)c1ccn(C2CCOC2)n1 (mixture of isomers) [Example 64, (6S)-3-[2,6-Difluoro-4-(2-phenylethynyl)phenyl]-1,6-dimethyl-6-[1-[(3RS)-tetrahydrofuran-3-yl]pyrazol-3-yl]hexahydropyrimidine-2,4-dione] | 
19 | 140% | 79 nM | CN1C(=O)N(c2c(F)cc(C#Cc3cc(F)ccc3F)cc2F)C(=O)C[C@@]1(C)c1cnn(C)c1 [Example 48, (6S)-3-[4-[2-(2,5-Difluorophenyl)ethynyl]-2,6-difluoro-phenyl]-1,6-dimethyl-6-(1-methylpyrazol-4-yl)hexahydropyrimidine-2,4-dione] | 
20 | 98% | 36 nM | CN1C(=O)N(c2c(F)cc(C#Cc3ccccc3)cc2F)C(=O)C[C@@]1(C)c1cnn(C)c1 [Example 6, (6S)-3-[2,6-Difluoro-4-(2-phenylethynyl)phenyl]-1,6-dimethyl-6-(1-methylpyrazol-4-yl)hexahydropyrimidine-2,4-dione] | 
